BindingDB's records for doi:10.1016/s0960-894x(99)00094-3 (Cold Spring Harbor Laboratory, 1999)

Legend:
[1] = Compound was evaluated for concentration that caused 50% inhibition of bovine Farnesyltransferase
[2] = Compound was evaluated for concentration that caused 50% inhibition of yeast Farnesyltransferase (expressed as a GST fusion protein in Escherichia coli)

IC50 [1] [nM] | IC50 [2] [nM] | Structure (SMILES)
> 200000 |  | CSCC[C@H](NC(=O)[C@@H]1CC[C@@H]2CCC[C@H](NC(=O)[C@H](N)CS)C(=O)N21)C(=O)O [(S)-2-{[(3S,6S,9aS)-6-((S)-2-Amino-3-mercapto-propionylamino)-5-oxo-octahydro-pyrrolo[1,2-a]azepine-3-carbonyl]-amino}-4-methylsulfanyl-butyric acid]
 | 5000 | CSCC[C@H](NC(=O)[C@@H]1CC[C@@H]2CC[C@](Cc3ccccc3)(NC(=O)[C@H](CS)NC(=O)OCC3c4ccccc4-c4ccccc43)C(=O)N21)C(=O)O [(S)-2-({(3S,6R,8aR)-6-Benzyl-6-[(R)-2-(9H-fluoren-9-ylmethoxycarbonylamino)-3-mercapto-propionylamino]-5-oxo-octahydro-indolizine-3-carbonyl}-amino)-4-methylsulfanyl-butyric acid]
21 | 300 | CSCC[C@H](NC(=O)[C@H](Cc1ccccc1)NC[C@@H](NC[C@@H](N)CS)C(C)C)C(=O)O [N-[2(S)-[2(R)-amino-3-mercaptopropylamino]-3-methylbutyl]-Phe-Met-OH]
> 200000 |  | CSCCC(NC(=O)[C@@H]1CC[C@@H]2CC[C@](Cc3ccccc3)(NC(=O)[C@@H](N)CS)C(=O)N21)C(=O)O (stereo partly drawn) [(S)-2-{[(3S,6R,8aR)-6-((R)-2-Amino-3-mercapto-propionylamino)-6-benzyl-5-oxo-octahydro-indolizine-3-carbonyl]-amino}-4-methylsulfanyl-butyric acid]
